Values quoted from earlier work in PMC8778659 (Bioconjugate Chemistry, 2021).

Tested on: LNCaP xenografts
Conditions: 1 h p.i. ref 29

For `O=C(O)CC[C@H](NC(=O)N[C@@H](CCCCNC(=O)c1ccc(-c2cn(CCOCCOCC[18F])nn2)cc1)C(=O)O)C(=O)O` [[18F]PSMA-MIC01], the specific tumor uptake is given as 11.7 ± 4.2 %ID/g.
